The subject of data set [1] is TK6 cells. The data set can be described thus: In vitro micronucleus assay (In Vitro MICROFLOW kit). The protocol:
The in vitro micronucleus assay is a chromosomal damage test that is widely used to evaluate chemical and/or physical agents for clastogenic and aneugenic activity. […] Furthermore, in the usual conduct of the in vitro micronucleus assay, the discrimination of bona fide genotoxic activity as primarily occurring through a clastogenic or aneugenic mode of action is not readily obtained.
For these experiments, each of the 20 chemicals was tested over closely spaced concentrations, 6 replicate wells per concentration. Three wells were used for the micronucleus analyses, and three wells were used for the several nuclear biomarker assessments of the type described in Example 1. Other endpoints of cytotoxicity were considered, including […], ethidium monoazide bromide (EMA) positive events as an indicator of membrane integrity, tetramethylrhodamine ethyl ester (TMRE) negative cells as an assessment of mitochondrial membrane potential, and ATP levels (using luciferase) as an assessment of overall cell health in the sample. […] Further details are described under Statistical Analyses, as well as Example 4 below.
Those cytotoxicity evaluations were based on a conventional approach for assessing cytotoxicity in genotoxicity tests, that is, relative cell counts (which in the case of the flow cytometry-based In Vitro MICROFLOW® kit is accomplished by measuring nuclei to counting bead ratio or else nuclei to time ratio and expressing these values relative to the mean solvent control value). […] The remaining three wells per concentration were used to accomplish a series of nuclei biomarker readings according to the invention, as well as two other assessments of cytotoxicity—frequency of TMRE-negative cells and ATP levels (via Promega's CELL TITERGLO® kit).

For data set [2], the system named is TK6 cells. The data set can be described thus: Nuclei to bead ratio (relative cell count, cytotoxicity) by flow cytometry. Format: cell-based. Background: Flow cytometry measures light scatter and fluorescence of single cells or particles in a stream.
For data set [3], the system named is TK6 cells. Nature of the data set: Cleaved PARP-positive nuclei by flow cytometry. The following applies: for PARP-Positive Nuclei (Fold-Increase): 24-27 hours, relative to Control. In kind it is cell-based. The source says:
(§1) This chemical was also observed to affect cleaved PARP and Caspase 3 levels in nuclei, as evidenced by the higher values of cleaved PARP- and Caspase 3-positive nuclei relative to solvent control wells.

In data set [4] the test system is TK6 cells. The data set can be described thus: Cleaved caspase 3-positive nuclei by flow cytometry. The following applies: for Caspase 3-Positive Nuclei (Fold-Increase): 24-27 hours, relative to Control. Format: cell-based.
Text: as §1

The test system of data set [5] is TK6 cells. In kind it is cell-based. The protocol:
This experiment highlights the ability of the invention to combine multiple nuclei-associated endpoints into one flow cytometric analysis. For this experiment, log-phase TK6 cells were treated with cisplatin over a wide range of concentrations and then incubated at 37° C. for 24 hours. Each concentration was studied in triplicate wells of a 96 well plate. After 24 hours, well contents were pipetted up and down several times to form homogenous suspensions, and 25 μl per well was added to wells of a new 96 well plate that contained 50 μl of working lysis/labeling/staining solution. This lysis/labeling/staining solution was comprised of 5 μl anti-γH2AX-Alexa® 488/ml, 1 μl anti-phospho-H3-PE/ml, 5 μl anti-cleaved PARP-Alexa® 647/ml, 5 μRNase/ml, […] Absolute Count Bead/50 μl

The test system of data set [6] is TK6 cells. The conditions noted are these: human.
The subject of data set [7] is TK6 cells. The conditions noted are these: human. This is another data set of the same source.
Method: The TK6 cells used in these experiments were from American Type Tissue Collection (ATCC) (Manassas, Va.). Cells were maintained in culture medium at 37° C., 5% CO2, and in a humid atmosphere. Cells were maintained between approximately 1×10^4 and 1×10^6 cells/ml for routine passage.
For these experiments, TK6 cells were treated with solvent (most often DMSO, 1% v/v) and a range of closely spaced test article concentrations. Treatments occurred in wells of a 96-well plate. At the start of treatment, cells were at 2×10^5/ml in a volume of 300 μl per well. Counting beads (PEAK FLOW™) were included in these cultures at a concentration of approximately 1 drop per 10 ml, and served as a means to derive relative nuclei to bead ratios (relative to solvent controls). Continuous treatment occurred for approximately 24 hrs, during which time plates were incubated at 37° C., 5% CO2, and in a humid atmosphere. Each test article concentration was studied in 3 to 6 replicate wells.
The γH2AX endpoint described herein was studied 4 and/or 24-27 hrs after start of treatment. Each of the remaining endpoints were studied at the conclusion of the treatment period, that is 24 to 27 hrs after initiation of exposure to test article (which for this cell line corresponds to approximately 1.5 to 2.0 population doubling times).
At the time of cell harvest (4 hrs and 24 to 27 hrs), cells were resuspended with gentle pipetting and 25 μl aliquots were transferred to wells of a 96 well plate containing 50 μl pre-aliquoted lysis solution.
After incubation at room temperate for at least 5 minutes, samples were analyzed with a dual-laser flow cytometer, 488 nm and 633 nm excitation (FACSCanto II, BD Biosciences, San Jose, Calif.). Instrumentation settings and data acquisition/analysis were controlled with Diva software v6.1.3. […] The BD Biosciences High Throughput Sampler (HTS) attachment was used to automatically analyze each of the samples in the 96 well plate(s). For the majority of these endpoints and experiments, the stop mode was configured such that each well was analyzed for 5 seconds, which usually represented sufficient time to acquire at least 500 NAD-positive nuclei.
Treatments occurred over a range of closely spaced concentrations.
The mark [8] stands for this setting: 24-27 hours after start of treatment.
Setting [9] is: TK6 cells, continuous exposure 24-27 hrs, In Vitro MICROFLOW kits.

Experimental findings from patent publication US11016101B2, “Simplified nuclei analysis platform and biomarker matrix that supports genotoxic mode of action determinations” (Litron Laboratories, Ltd., priority 2013, dated 2021) are described below.

“Also recorded” adds a separate entry of the source. Counter-ions that a name gives are not always drawn. Like-named read-outs stand apart in the source and are kept apart here.

Turning to `O=c1[nH]cc(F)c(=O)[nH]1` [5-fluorouracil], the “in vitro micronucleus results” value in the data set on TK6 cells [1] is given as “positive”.
Consider `N#CC(C#N)=NNc1cccc(Cl)c1` [CCCP, carbonyl cyanide m-chlorophenyl hydrazone], for which the “Nuclei to Bead Ratio (% of Control)” value is recorded as 79 % of Control in the data set on TK6 cells [2] (CCCP 3.125 μM, TK6 cells, 24-27 hours after start of treatment); 69 % of Control in the data set with TK6 cells [2] (CCCP 4.6875 μM, TK6 cells, 24-27 hours after start of treatment); 64 % of Control in the data set with TK6 cells [2] (CCCP 6.25 μM, TK6 cells, 24-27 hours after start of treatment); 59 % of Control in the data set on TK6 cells [2] (CCCP 9.375 μM, TK6 cells, 24-27 hours after start of treatment); 50 % of Control in the data set with TK6 cells [2] (CCCP 12.5 μM, TK6 cells, 24-27 hours after start of treatment). Moreover, the “nuclei to bead ratios (effect in words)” value with TK6 cells [2] (TK6 cells, range of closely spaced concentrations, 24-27 hours, indicative of fewer cells and therefore cytotoxicity) was “concentration-dependent reductions”. Also, the “cleaved PARP-positive nuclei relative to solvent control wells (effect in words)” value in the data set on TK6 cells [3] (setting [8]) was “higher values”. For the same molecule, the “PARP-Positive Nuclei (Fold-Increase)” value in the data set with TK6 cells [3] (CCCP 3.125 μM) was found to be 4.90 Fold-Increase; in the data set on TK6 cells [3] (CCCP 4.6875 μM), 8.60 Fold-Increase; with TK6 cells [3] (CCCP 6.25 μM), 12.1 Fold-Increase; in the data set on TK6 cells [3] (CCCP 9.375 μM), 20.75 Fold-Increase; in the data set on TK6 cells [3] (CCCP 12.5 μM), 34.45 Fold-Increase. Also, the “cleaved Caspase 3-positive nuclei relative to solvent control (effect in words)” value in the data set with TK6 cells [4] (setting [8]) is recorded as “visibly increased; also recorded: higher values”. The “Caspase 3-Positive Nuclei (Fold-Increase)” value in the data set with TK6 cells [4] (CCCP 3.125 μM) is recorded as 2.63 Fold-Increase; in the data set with TK6 cells [4] (CCCP 4.6875 μM), 4.33 Fold-Increase; in the data set with TK6 cells [4] (CCCP 6.25 μM), 5.86 Fold-Increase; with TK6 cells [4] (CCCP 9.375 μM) it was 9.13 Fold-Increase; in the data set with TK6 cells [4] (CCCP 12.5 μM), 18.83 Fold-Increase. In the data set on TK6 cells [1] (setting [9]), the “in vitro micronucleus results” value is listed as “positive”.
Consider `N.N.[Cl][Pt][Cl]` [Cisplatin, cisplatin], for which, in the data set with TK6 cells [5], the “absolute and relative nuclei counts (effect in words)” value is “reduced in a cisplatin concentration-dependent manner”; the “anti-cleaved PARP positive chromatin (effect in words)” value is listed as “increased in a cisplatin concentration-dependent manner”; the “anti-phospho-H3 positive nuclei (effect in words)” value is reported as “reduced in a cisplatin concentration-dependent manner”; the “other changes to cell cycle (effect in words)” value is recorded as “accumulation of cells in the G2/M phase”. The “shift in anti-γH2AX-associated fluorescence (effect in words)” value in the data set with TK6 cells [5] is given as “increased in a cisplatin concentration-dependent manner”. Also, the “in vitro micronucleus results” value in the data set on TK6 cells [1] is given as “positive”.
Take `COS(C)(=O)=O` [MMS, methyl methanesulfonate]: the “nuclei to bead ratios (effect in words)” value in the data set on TK6 cells [2] is given as “concentration-dependent reductions”. Further, the “Nuclei to Bead Ratio (% of Control)” value in the data set on TK6 cells [2] (human, 2.344 μg/ml) is 88 % of Control; with TK6 cells [2] (human, 3.125 μg/ml), 87 % of Control; in the data set on TK6 cells [2] (human, 4.6875 μg/ml) it was 83 % of Control; in the data set with TK6 cells [2] (human, 6.25 μg/ml), 78 % of Control; in the data set with TK6 cells [2] (human, 9.375 μg/ml), 64 % of Control; in the data set on TK6 cells [2] (human, 12.5 μg/ml), 58 % of Control. The “Phospho-H3+ Nuclei (Fold-Increase)” value turned out to be 1.00 Fold-Increase with TK6 cells [6] (2.344 μg/ml); 0.76 Fold-Increase with TK6 cells [6] (3.125 μg/ml); 0.67 Fold-Increase with TK6 cells [6] (4.6875 μg/ml); 0.71 Fold-Increase in the data set on TK6 cells [6] (6.25 μg/ml); 0.76 Fold-Increase with TK6 cells [6] (9.375 μg/ml); 0.65 Fold-Increase in the data set on TK6 cells [6] (12.5 μg/ml). Besides, the “in vitro micronucleus results” value in the data set on TK6 cells [1] is reported as “positive”. The “γH2AX Fluorescence (Fold-Increase)” value in the data set on TK6 cells [7] (2.344 μg/ml) is 3.13 Fold-Increase; in the data set with TK6 cells [7] (3.125 μg/ml) it was 4.11 Fold-Increase; in the data set with TK6 cells [7] (4.6875 μg/ml), 4.36 Fold-Increase; with TK6 cells [7] (6.25 μg/ml), 4.92 Fold-Increase; in the data set on TK6 cells [7] (9.375 μg/ml) it was 4.79 Fold-Increase; in the data set on TK6 cells [7] (12.5 μg/ml), 4.80 Fold-Increase.
On to `CC[C@]1(O)C[C@@H]2CN(CCc3c([nH]c4ccccc34)[C@@](C(=O)OC)(c3cc4c(cc3OC)N(C)[C@H]3[C@@](O)(C(=O)OC)[C@H](OC(C)=O)[C@]5(CC)C=CCN6CC[C@]43[C@@H]65)C2)C1` [Vinblastine, vinblastine], for which, in the data set with TK6 cells [2], the “nuclei to bead ratios (effect in words)” value is “concentration-dependent reductions”. The “Nuclei to Bead Ratio (% of Control)” value in the data set on TK6 cells [2] (human, 0.3 ng/ml) is 98 % of Control; in the data set on TK6 cells [2] (human, 0.4 ng/ml) it was 97 % of Control; in the data set with TK6 cells [2] (human, 0.6 ng/ml), 86 % of Control; with TK6 cells [2] (human, 0.8 ng/ml), 81 % of Control; with TK6 cells [2] (human, 1.2 ng/ml), 71 % of Control; in the data set with TK6 cells [2] (human, 1.6 ng/ml), 58 % of Control. In addition, the “Phospho-H3+ Nuclei (Fold-Increase)” value is recorded as “.86 Fold-Increase” with TK6 cells [6] (0.3 ng/ml); “.86 Fold-Increase” in the data set on TK6 cells [6] (0.4 ng/ml); 1.23 Fold-Increase in the data set with TK6 cells [6] (0.6 ng/ml); 2.11 Fold-Increase in the data set on TK6 cells [6] (0.8 ng/ml); 4.85 Fold-Increase in the data set on TK6 cells [6] (1.2 ng/ml); 5.41 Fold-Increase with TK6 cells [6] (1.6 ng/ml). Further, in the data set on TK6 cells [1], the “in vitro micronucleus results” value was “positive”.
Turning to `C[C@@]1(CO)[C@H](O)CC[C@@]2(C)[C@H]1CC[C@H]1C[C@@H]3C[C@@]12CC[C@]3(O)CO` [aphidicoline], in the data set with TK6 cells [1] (setting [9]), the “in vitro micronucleus results” value was “positive”.
Take `Nc1ccn([C@@H]2O[C@H](CO)[C@@H](O)[C@@H]2O)c(=O)n1` [arabinofuranosyl cytidine]: the “in vitro micronucleus results” value in the data set on TK6 cells [1] (setting [9]) was “positive”.
`CC[C@@]1(O)C(=O)OCc2c1cc1n(c2=O)Cc2cc3ccccc3nc2-1` [camptothecin]: in the data set on TK6 cells [1] (setting [9]), the “in vitro micronucleus results” value is on record as “positive”.
For `COC(=O)Nc1nc2ccccc2[nH]1` [carbendazim], the “in vitro micronucleus results” value in the data set with TK6 cells [1] was “positive”.
For the molecule `CC/C(=C(/CC)c1ccc(O)cc1)c1ccc(O)cc1` [diethylstilbestrol], the “in vitro micronucleus results” value with TK6 cells [1] (setting [9]) is listed as “positive”.
With `COc1cc([C@@H]2c3cc4c(cc3[C@@H](O[C@@H]3O[C@@H]5CO[C@@H](C)O[C@H]5[C@H](O)[C@H]3O)[C@H]3COC(=O)[C@H]23)OCO4)cc(OC)c1O` [etoposide], the “in vitro micronucleus results” value in the data set on TK6 cells [1] is listed as “positive”.
`NC(=O)NO` [hydroxyurea]: in the data set on TK6 cells [1], the “in vitro micronucleus results” value is “positive”.
For the molecule `COc1ccc(C2=N[C@@H](c3ccc(Cl)cc3)[C@@H](c3ccc(Cl)cc3)N2C(=O)N2CCNC(=O)C2)c(OC(C)C)c1` [nutlin-3], the “in vitro micronucleus results” value in the data set on TK6 cells [1] (setting [9]) is listed as “positive”.
As for `[H]/N=C(/N)N/C(=N/[H])NCCc1ccccc1` [phenformin HCl], the “in vitro micronucleus results” value in the data set on TK6 cells [1] (setting [9]) is recorded as “positive”.
Regarding tunicamycin, in the data set with TK6 cells [1] (setting [9]), the “in vitro micronucleus results” value is on record as “positive”.
